Measured values taken from publication PMC4501499 (MedChemComm, 2015).

Assays:
[1] = molecular target: T1, rat UT-A1 (Rattus norvegicus, UniProt Q62668); test: UT-A1 inhibition assay; assay type: cell-based; settings: for UT inhibition activity (in words): text summary of urea transport inhibition (UT-A1 / UT-B, Table 1)
T1 sequence (Q62668 1-929): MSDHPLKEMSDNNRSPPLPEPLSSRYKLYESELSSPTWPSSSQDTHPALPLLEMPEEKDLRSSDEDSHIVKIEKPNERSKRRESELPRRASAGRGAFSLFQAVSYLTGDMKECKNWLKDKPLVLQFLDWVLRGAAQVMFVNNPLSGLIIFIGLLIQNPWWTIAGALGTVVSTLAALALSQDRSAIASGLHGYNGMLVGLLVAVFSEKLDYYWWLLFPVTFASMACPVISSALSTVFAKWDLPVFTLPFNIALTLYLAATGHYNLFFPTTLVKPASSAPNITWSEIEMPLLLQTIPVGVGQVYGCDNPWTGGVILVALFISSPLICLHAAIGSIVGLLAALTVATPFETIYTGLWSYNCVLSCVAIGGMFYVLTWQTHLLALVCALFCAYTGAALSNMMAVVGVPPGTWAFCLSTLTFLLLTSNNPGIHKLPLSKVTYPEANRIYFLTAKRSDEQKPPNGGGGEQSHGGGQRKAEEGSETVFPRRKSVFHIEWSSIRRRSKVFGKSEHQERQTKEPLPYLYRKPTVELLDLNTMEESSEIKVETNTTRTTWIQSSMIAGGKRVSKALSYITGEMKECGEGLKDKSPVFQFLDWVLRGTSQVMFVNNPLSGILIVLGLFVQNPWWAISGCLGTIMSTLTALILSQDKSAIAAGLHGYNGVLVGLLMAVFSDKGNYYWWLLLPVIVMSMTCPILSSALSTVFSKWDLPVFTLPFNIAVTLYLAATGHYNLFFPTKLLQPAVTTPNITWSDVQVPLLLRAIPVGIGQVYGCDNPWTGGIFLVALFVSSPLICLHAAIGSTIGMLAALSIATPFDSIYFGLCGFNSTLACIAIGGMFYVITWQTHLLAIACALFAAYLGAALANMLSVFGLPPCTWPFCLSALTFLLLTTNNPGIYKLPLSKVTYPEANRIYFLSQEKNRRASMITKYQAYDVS

[2] = molecular target: T2, UT-B (Rattus norvegicus, UniProt P97689); test: UT-B inhibition assay; assay type: cell-based; settings: concentration-inhibition fit
T2 sequence (P97689 1-384): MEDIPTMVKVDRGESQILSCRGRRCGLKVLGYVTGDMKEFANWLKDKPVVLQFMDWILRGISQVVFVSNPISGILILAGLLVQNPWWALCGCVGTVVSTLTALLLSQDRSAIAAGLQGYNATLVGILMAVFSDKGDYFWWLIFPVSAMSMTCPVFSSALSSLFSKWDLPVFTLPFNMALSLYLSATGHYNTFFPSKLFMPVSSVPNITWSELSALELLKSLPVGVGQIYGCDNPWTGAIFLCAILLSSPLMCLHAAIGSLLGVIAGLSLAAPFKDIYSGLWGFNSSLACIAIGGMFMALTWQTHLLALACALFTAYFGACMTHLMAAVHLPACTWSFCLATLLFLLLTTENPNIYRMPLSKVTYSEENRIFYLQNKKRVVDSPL

[3] = in vitro microsomal stability with NADPH, LC/MS; settings: rat liver microsomes

CC(=O)Nc1ccc2c(c1)C(=O)c1cc(NC(C)=O)ccc1-2 [compound 3, 2,7-bisacetamido fluoren-9-one]
extent of UT-A1 inhibition at higher concentrations ([1]; higher concentrations): complete inhibition
reversibility of UT-A1 inhibition ([1]; incubation near IC50, then washing with PBS): complete reversibility
time to complete inhibition of UT-A1 ([1]; inhibition kinetics): ≤ 40 s
Hill coefficient, UT-A1 ([1]; rat UT-A1, concentration-inhibition fit): 0.9
inhibition mechanism (urea competition) ([1]; urea 80 to 1,600 mM, apparent IC50 independent of urea concentration): non-competitive
Hill coefficient, UT-B [2]: 1.1
[M+H-16] metabolite by LC/MS [3]: detected

O=C1c2cc(NC(=O)C(F)(F)F)ccc2-c2ccc(NC(=O)C(F)(F)F)cc21 [compound 7]
UT inhibition activity (in words) [1]: much less active

CS(=O)(=O)Nc1ccc2c(c1)C(=O)c1cc(NS(C)(=O)=O)ccc1-2 [compound 9]
UT inhibition activity (in words) [1]: strong inhibition

O=C(CO)Nc1ccc2c(c1)C(=O)c1cc(NC(=O)CO)ccc1-2 [compound 12]
UT inhibition activity (in words) [1]: low activity

CC(=O)Nc1ccc2c(c1)C(=NO)c1cc(NC(C)=O)ccc1-2 [compound 17]
[M+H-16] metabolite by LC/MS [3]: not detected

CC(=O)Nc1cccc(C(=O)c2cccc(NC(C)=O)c2)c1 [compound 22]
[M+H-16] metabolite by LC/MS [3]: not detected

CS(=O)(=O)Nc1cccc(C(=O)c2cccc(NS(C)(=O)=O)c2)c1 [compound 24, bismethanesulfonamidobenzophenone]
UT inhibition activity (in words) [1]: inactive
